# Source: ChEMBL document CHEMBL1629648, “New composite genetic element of the Tn916 family with dual macrolide resistance genes in a Streptococcus pneumoniae isolate belonging to clonal complex 271” (2009)
# Test system: Streptococcus pneumoniae
# Assay: Antimicrobial activity against multidrug resistant Streptococcus pneumoniae serotype 19F S43 carring erm(B),mef(E) and tet(M) gene
# Format: functional
row,Compound,MIC
1,CC[C@H]1OC(=O)[C@H](C)[C@@H](O[C@H]2C[C@@](C)(OC)[C@@H](O)[C@H](C)O2)[C@H](C)[C@@H](O[C@@H]2O[C@H](C)C[C@H](N(C)C)[C@H]2O)[C@](C)(O)C[C@@H](C)C(=O)[C@H](C)[C@@H](O)[C@]1(C)O [ERYTHROMYCIN],> 256 µg/mL
2,CC1(C)S[C@@H]2[C@H](NC(=O)Cc3ccccc3)C(=O)N2[C@H]1C(=O)O [PENICILLIN G],4 µg/mL
3,CCC[C@@H]1C[C@@H](C(=O)N[C@@H]([C@H]2O[C@H](SC)[C@H](O)[C@@H](O)[C@H]2O)[C@H](C)Cl)N(C)C1 [CLINDAMYCIN],> 256 µg/mL
4,CN(C)[C@@H]1C(O)=C(C(N)=O)C(=O)[C@@]2(O)C(O)=C3C(=O)c4c(O)cccc4[C@@](C)(O)[C@H]3C[C@@H]12 [TETRACYCLINE],16 µg/mL
